The test system of series [1] is Rattus norvegicus. In words: Anxiolytic activity in Long-Evans hooded rat assessed as open arm time at 0.1 mg/kg, ip by elevated plus maze test. Type of series: functional. The following applies: route intraperitoneal.
Series [2] deals with Rattus norvegicus. In words: Sedative activity in Long-Evans hooded rat assessed as vertical movements at 0.03 mg/kg, ip by spontaneous locomotor activity test. Type of series: organism-based. Set-up: dose 0.03 mg/kg, route intraperitoneal. The following applies: in vivo.
The subject of series [3] is Rattus norvegicus. Nature of the series: Sedative activity in Long-Evans hooded rat assessed as vertical movements at 10 mg/kg, ip by spontaneous locomotor activity test. Type of series: organism-based. Set-up: dose 10 mg/kg, route intraperitoneal. The following applies: in vivo.
Series [4] deals with Rattus norvegicus. In words: Anxiolytic activity in Long-Evans hooded rat assessed as open arm time at 1 mg/kg, ip by elevated plus maze test. The following applies: route intraperitoneal. Type of series: functional.
The test system of series [5] is Rattus norvegicus. Nature of the series: Anxiolytic activity in Long-Evans hooded rat assessed as open arm time at 0.3 mg/kg, ip by elevated plus maze test. Type of series: functional. To be noted: route intraperitoneal.
For series [6], the system named is Rattus norvegicus. Nature of the series: Sedative activity in Long-Evans hooded rat assessed as vertical movements at 0.3 mg/kg, ip by spontaneous locomotor activity test. To be noted: in vivo. It counts as organism-based. Set-up: dose 0.3 mg/kg, route intraperitoneal.
In series [7] the test system is Rattus norvegicus. Nature of the series: Sedative activity in Long-Evans hooded rat assessed as vertical movements at 0.1 mg/kg, ip by spontaneous locomotor activity test. It counts as organism-based. Set-up: dose 0.1 mg/kg, route intraperitoneal. The following applies: in vivo.
The test system of series [8] is Rattus norvegicus. Nature of the series: Anxiolytic activity in Long-Evans hooded rat assessed as open arm time at 3 mg/kg, ip by elevated plus maze test. It counts as functional. To be noted: route intraperitoneal.
Series [9] deals with Rattus norvegicus. In words: Sedative activity in Long-Evans hooded rat assessed as vertical movements at 3 mg/kg, ip by spontaneous locomotor activity test. Type of series: organism-based. Set-up: dose 3 mg/kg, route intraperitoneal. The following applies: in vivo.
The test system of series [10] is Rattus norvegicus. In words: Anxiolytic activity in Long-Evans hooded rat assessed as open arm time at 0.03 mg/kg, ip by elevated plus maze test. To be noted: route intraperitoneal. Type of series: functional.
Series [11] deals with Rattus norvegicus. Nature of the series: Sedative activity in Long-Evans hooded rat assessed as vertical movements at 1 mg/kg, ip by spontaneous locomotor activity test. The following applies: in vivo. Type of series: organism-based. Set-up: dose 1 mg/kg, route intraperitoneal.
Series [12] has as its system Rattus norvegicus. Nature of the series: Sedative activity in Long-Evans hooded rat assessed as vertical movements at 0.5 mg/kg, ip by spontaneous locomotor activity test. Type of series: organism-based. Set-up: dose 0.5 mg/kg, route intraperitoneal. To be noted: in vivo.
For series [13], the system named is Rattus norvegicus. Nature of the series: Anxiolytic activity in Long-Evans hooded rat assessed as open arm time at 0.5 mg/kg, ip by elevated plus maze test. It counts as functional. To be noted: route intraperitoneal.

For two molecules, Activity results are on record in ChEMBL document CHEMBL3393026, “A selective small molecule NOP (ORL-1 receptor) partial agonist for the treatment of anxiety” (Bioorg Med Chem Lett, 2015).

`CCCCN(Cc1ccccc1)C[C@H](O)CN1CN(c2ccc(F)cc2)C2(CCN(CC3CCCCCCC3)CC2)C1=O`: the Activity with Rattus norvegicus [1] is reported as 72.5%; in the series with Rattus norvegicus [2] it was -0.4%; in the series on Rattus norvegicus [3] it was -6.2%; in the series on Rattus norvegicus [4], 57.8%; with Rattus norvegicus [5], 54.4%; with Rattus norvegicus [6], 16%. The Activity with Rattus norvegicus [7] came to 11.4%; in the series on Rattus norvegicus [8] it was 24%; in the series on Rattus norvegicus [9] it was 2.2%; with Rattus norvegicus [10], 5.9%; in the series on Rattus norvegicus [11], 7.6%.

Turning to `O=C1Nc2ccc(Cl)cc2C(c2ccccc2Cl)=NC1O` (stereo not drawn) [LORAZEPAM], the values for the Activity with Rattus norvegicus [12] and with Rattus norvegicus [13] were -72% and 222.4%, respectively.
